Reference: patent US5227508A, “3-deoxy-3-substituted analogs of phosphatidylinositol” (Mayo Foundation for Medical Education and Research, priority 1992, dated 1993)
Read-outs that look alike come from different tables or passages of the source.

What was measured:
[1] = test system: NIH 3T3 cells (wild type); assay: Cell growth inhibition, wild type NIH 3T3 cells, 3 days; assay type: cell-based; details: for IC50: Mus musculus, NIH3T3, 72 h, 3 days
Description: (§1) Wild type NIH 3T3 cells and v-sis oncogene-expressing NIH 3T3 cells were maintained in bulk culture in DMEM with 10% heat inactivated calf serum and passaged using 0.05% trypsin and 0.5 mM EDTA. For cell growth assays, the cells were plated at a density of 5×10^3 cells in 1.6 cm diameter culture wells in 0.5 ml DMEM containing 10% heat inactivated calf serum and allowed to attach to the surface of the well for 24 hr. The medium was then replaced with fresh medium containing the myo-inositol analogues. […] Adherent cells were harvested after 3 days and were counted using an automated cell counter. Inhibition of cell growth caused by serial concentrations of analogues was expressed as a percentage of the number of nontreated cells at the end of the 3-day incubation period. Incubations were conducted in quadruplicate. The mean concentration of analogue required to cause 50% inhibition of cell growth (IC50)±S.E. was calculated from nonlinear least-squares regression analysis of the cell-proliferation concentration data (P. L. Appel et al., Cancer Chemother. Pharmacol., 17, 47 (1986)).

[2] = test system: v-sis oncogene-expressing NIH 3T3 cells; assay: Cell growth inhibition, v-sis oncogene-expressing NIH 3T3 cells, 3 days; assay type: cell-based; details: for IC50: Mus musculus, NIH3T3, 72 h, 3 days
Description: as §1

HT-29 cells = assay: Soft agar colony forming assay, HT-29 colon carcinoma, 7 days; assay type: cell-based; details: Homo sapiens, HT-29, 168 h, medium with 40 μM myo-inositol, read-out: IC50 for inhibition of colony formation
Description: The human colon carcinoma cell line, HT-29, was chosen as being representative of a clinically very important, slow growing and chemotherapy resistant human solid tumor. Many human colon cancer lines, including HT-29, have the v-sis oncogene (D. L. Trainer et al., Int. J. Cancer, 41, 287 (1988)). The growth of HT-29 cells was measured by colony formation in the soft agar colony forming assay over 7 days, with automated colony counting using a Omicon 3600 Image Analysis System, as described previously by M. C. Alley et al., 44, 549 (1984).
All soft-agarose cultures were performed in similar fashion. Each 35-mm culture dish contained a base layer consisting of 0.5 ml of standard DMEM culture medium (with 40 μM myo-inositol) with 0.5% agarose. On Day 0, cells in bulk culture were dissociated with trypsin and EDTA, washed once in growth medium, and subcultured by layering 1×10^4 viable cells in 0.5 ml of growth medium with 0.3% agarose over each base layer. Cultures were maintained in cell culture incubators at 37° C., 5% CO2 :95% air, and 100% relative humidity. On Day 1 (24 hr later), an upper layer of 1 ml of growth medium containing drug was applied to each culture. Cell lines formed a sufficient number of detectable colonies (>60 μm diameter) for analysis following 7 days of incubation. […]

[3] = test system: normal NIH 3T3 cells and several oncogene transformed NIH 3T3 cell lines; details: in culture; prior work (A. P. Kozikowski); cited from earlier work
[4] = - myo-inositol, ± S.E. of mean, read-out: NIH IC50
[5] = - myo-inositol, ± S.E. of mean, read-out: v-sis NIH IC50

Compound	IC50 ([1]; + myo-inositol, ± S.E. of mean, read-out: NIH IC50)	IC50 [1, 4]	antagonism of growth inhibition by myo-inositol ([1]; myo-inositol at physiological concentrations, wild type NIH 3T3)	more potent inhibitor of cell growth than the simple myo-inositol analogue ([1]; wild type NIH 3T3 cells, compared with D-3-deoxy-fluoro-myo-inositol)	IC50 ([2]; + myo-inositol, ± S.E. of mean, read-out: v-sis NIH IC50)	IC50 [2, 5]	antagonism of growth inhibition by myo-inositol ([2]; myo-inositol at physiological concentrations, v-sis NIH 3T3)	selectivity for growth inhibition of v-sis compared to wild type NIH 3T3 cell ([2]; v-sis vs wild type NIH 3T3)	IC50 (HT-29 cells)	IC50 ([1]; + myo-inositol, read-out: NIH IC50 (class symbol))	IC50 ([2]; + myo-inositol, read-out: v-sis NIH IC50 (class symbol))	cell growth inhibitory activities [3]
CCCCCCCCCCCCCCCC(=O)OC[C@H](COP(=O)(O)O[C@H]1[C@H](O)[C@@H](O)[C@H](O)[C@@H](F)[C@H]1O)OC(=O)CCCCCCCCCCCCCCC [Compound 7, 3-Deoxy-3-fluoro-D-myo-inositol [(R)-2,3-bis(hexadecanoyloxy)propyl] hydrogen phosphate]	99 ± 13 µM	110 ± 20 µM	not antagonized by myo-inositol at physiological concentrations	up to 1,000 fold	81 ± 11 µM	107 ± 15 µM	not antagonized by myo-inositol at physiological concentrations	lost	53 ± 9 µM			
O[C@@H]1[C@@H](O)[C@H](O)[C@@H](F)[C@@H](O)[C@H]1O [3-deoxy-3-fluoro-myo-inositol, reference compound]		7000 µM				1000 µM				> 33000 µM	> 33000 µM	exhibit cell growth inhibitory activities
